Assay results as given in patent US20140350273A1, “PEDIATRIC USES OF CABAZITAXEL” (AVENTIS PHARMA S.A., priority 2012, published 2014).
Where two headings read alike, the source gives them in different places.

System: human osteosarcoma DM77
Format: in vivo
Details: for Tumor Volume Data (Day 21) Median / ΔT/ΔC % / ΔT/ΔC: day 21; for MTTE / T-C: volume endpoint 1400 mm^3
Experimental: In the reported examples supporting this invention, vials of the clinical formulation of cabazitaxel and docetaxel were used. […] The resultant solution contains 10 mg/mL of cabazitaxel. Stock solution of cabazitaxel was then diluted in 0.9% sodium chloride.
This efficacy may be quantified, for example, as changes in tumor volume for each treated (T) and control (C) group, which are calculated for each animal and each day by subtracting the tumor volume on the day of first treatment (staging day) from the tumor volume on the specified observation day. This allows calculating the tumor growth inhibition: ΔT/ΔC=(median delta T/median delta C)×100. Individual tumor volume changes from baseline are thereafter analyzed by a non-parametric two-way ANOVA-TYPE (with factors: group and repeated days) followed by a post-hoc contrasts analysis, with Bonferroni-Holm adjustment for multiplicity, comparing all treated groups to the control group. […] A probability less than 5% (p<0.05) was considered as significant.
Based on the National Cancer Institute (NCl) standards, a ΔT/ΔC≦40% is the minimal level required to declare activity.
This efficacy may also be quantified by the number of tumor regressions observed after therapy. Individual mice reporting a tumor volume ≦50% of the Day 0 measurement for two consecutive measurements over a seven day period were considered partial responders (PR). Individual mice lacking palpable tumors (<4×4 mm^2 for two consecutive measurements over a seven day period) were classified as complete responders (CR); a CR that persisted until study completion was considered a tumor-free survivor (TFS).
Efficacy could also be determined at study completion, using tumor growth delay (T-C) in days, which is calculated using the median time to endpoint (MTTE) value for each treatment (T) group versus control (C). A Log Rank multiple comparison test with Bonferroni-Holm adjustment for multiplicity was applied on individual TTE to compare the treated groups to the control group.
The efficacy of cabazitaxel in comparison with docetaxel on pediatric patient-derived tumor xenografts was determined experimentally in the following manner:
The animals subjected to the experiment are subcutaneously grafted unilaterally with approximately 30 mg of a tumor fragment from low passage pediatric patient-derived tumor xenografts. The animals are implanted with a human patient-derived pediatric tumor xenografted in immuno-compromised mice (Harlan; nu/nu). Several days post tumor implantation, mice are randomized according to their tumor burden to the different groups of treatments and controls. The agents are dosed intravenously at 5.8, 9.3, 15 or 24.2 mg/kg every 4 days for a total of 3 doses (q4d×3) to mice bearing a tumor burden at start of therapy (day 0) ranged from 125 to 250 mm^3.
Beginning Day 0, animals were observed daily and weighed twice weekly using a digital scale; data including individual and mean gram weights (Mean We±SD), mean percent weight change versus Day 0 were recorded for each group. Animal deaths were recorded daily and designated as drug-related (D), technical (T), tumor related (B), or unknown (U) based on weight loss and gross observation; single agent or combination groups reporting a mean >20% for a period of 7 days and/or >10% mortality were considered above the maximum tolerated dose (MTD) for that treatment on the evaluated regimen.
The selected tumor model, DM77, was a low passage patient-derived tumor xenograft derived from an osteosarcoma taken from the lung of a patient. […]

`CC(=O)O[C@@]12CO[C@@H]1C[C@H](O)[C@@]1(C)C(=O)[C@H](O)C3=C(C)[C@@H](OC(=O)[C@H](O)[C@@H](NC(=O)OC(C)(C)C)c4ccccc4)C[C@@](O)([C@@H](OC(=O)c4ccccc4)[C@H]21)C3(C)C` [Docetaxel, docetaxel] was tested, and the “#CR” value (5.8 mg/kg i.v./q4dx3) was 0/0/0, the “#PR” value (5.8 mg/kg i.v./q4dx3) was 0/0/0 and the “#TFS” value (5.8 mg/kg i.v./q4dx3) was 0/0/0. For the same molecule, the “Drug Deaths Total” value (5.8 mg/kg i.v./q4dx3) was 0, the “Weight Change at Nadir %” value (5.8 mg/kg i.v./q4dx3) was −6% and the “Weight Change at Nadir Day” value (5.8 mg/kg i.v./q4dx3) was 11 days. The “Tumor Volume Data (Day 21) Median” value (5.8 mg/kg i.v./q4dx3) was 300 mm^3, the ΔT/ΔC % (5.8 mg/kg i.v./q4dx3) was 18.5% and the MTTE (5.8 mg/kg i.v./q4dx3) was 53 days. For the same molecule, the T-C (5.8 mg/kg i.v./q4dx3) was 28 days, the ΔT/ΔC (5.8 mg/kg q4d×3 IV) was 18.5% and the “tumor volume changes from baseline, Median +/− nMAD” value (shortened to “tumor volume changes from baseline”) (5.8 mg/kg, DAY 4) was 47 +/− 47. For the same molecule, the “tumor volume changes from baseline” value (5.8 mg/kg, DAY 7) was 73 +/− 23, the “tumor volume changes from baseline” value (5.8 mg/kg, DAY 11) was 122 +/− 56 and the “tumor volume changes from baseline” value (5.8 mg/kg, DAY 14) was 129 +/− 63. The “tumor volume changes from baseline” value (5.8 mg/kg, DAY 18) was 169 +/− 116, the “tumor volume changes from baseline” value (5.8 mg/kg, DAY 21) was 169 +/− 103 and the “tumor volume changes from baseline” value (5.8 mg/kg, DAY 25) was 217 +/− 151. The “tumor volume changes from baseline” value (5.8 mg/kg, DAY 28) was 290 +/− 198, the “tumor volume changes from baseline” value (5.8 mg/kg, DAY 32) was 332 +/− 266 and the “tumor volume changes from baseline” value (5.8 mg/kg, DAY 35) was 342 +/− 250. The “tumor volume changes from baseline” value (5.8 mg/kg, DAY 39) was 342 +/− 121, the “tumor volume changes from baseline” value (5.8 mg/kg, DAY 42) was 401 +/− 169.5 and the “tumor volume changes from baseline” value (5.8 mg/kg, DAY 46) was 546 +/− 185.5. The “tumor volume changes from baseline” value (5.8 mg/kg, DAY 49) was 512 +/− 142, the “tumor volume changes from baseline” value (5.8 mg/kg, DAY 53) was 657.5 and the “tumor volume changes from baseline” value (5.8 mg/kg, DAY 56) was 875.5. For the same molecule, the “#CR” value (9.3 mg/kg i.v./q4dx3) was 0/0/0, the “#PR” value (9.3 mg/kg i.v./q4dx3) was 0/0/0 and the “#TFS” value (9.3 mg/kg i.v./q4dx3) was 0/0/0. The “Drug Deaths Total” value (9.3 mg/kg i.v./q4dx3) was 0, the “Weight Change at Nadir %” value (9.3 mg/kg i.v./q4dx3) was −7% and the “Weight Change at Nadir Day” value (9.3 mg/kg i.v./q4dx3) was 14 days. The “Tumor Volume Data (Day 21) Median” value (9.3 mg/kg i.v./q4dx3) was 266 mm^3, the ΔT/ΔC % (9.3 mg/kg i.v./q4dx3) was 9.6% and the MTTE (9.3 mg/kg i.v./q4dx3) was greater than 60 days. For the same molecule, the T-C (9.3 mg/kg i.v./q4dx3) was greater than 35 days, the “numbers of PR” value (9.3 mg/kg q4d×3 IV) was 0/9 and the ΔT/ΔC (9.3 mg/kg q4d×3 IV) was 9.6%. For the same molecule, the “tumor volume changes from baseline” value (9.3 mg/kg, DAY 4) was 87 +/− 40, the “tumor volume changes from baseline” value (9.3 mg/kg, DAY 7) was 87 +/− 42 and the “tumor volume changes from baseline” value (9.3 mg/kg, DAY 11) was 96 +/− 77. The “tumor volume changes from baseline” value (9.3 mg/kg, DAY 14) was 96 +/− 69, the “tumor volume changes from baseline” value (9.3 mg/kg, DAY 18) was 96 +/− 69 and the “tumor volume changes from baseline” value (9.3 mg/kg, DAY 21) was 88 +/− 74. For the same molecule, the “tumor volume changes from baseline” value (9.3 mg/kg, DAY 25) was 124 +/− 93, the “tumor volume changes from baseline” value (9.3 mg/kg, DAY 28) was 124 +/− 171 and the “tumor volume changes from baseline” value (9.3 mg/kg, DAY 32) was 154 +/− 201. For the same molecule, the “tumor volume changes from baseline” value (9.3 mg/kg, DAY 35) was 169 +/− 235, the “tumor volume changes from baseline” value (9.3 mg/kg, DAY 39) was 202 +/− 268 and the “tumor volume changes from baseline” value (9.3 mg/kg, DAY 42) was 309 +/− 375. The “tumor volume changes from baseline” value (9.3 mg/kg, DAY 46) was 309 +/− 375, the “tumor volume changes from baseline” value (9.3 mg/kg, DAY 49) was 424.5 and the “tumor volume changes from baseline” value (9.3 mg/kg, DAY 53) was 542 +/− 447.5. The “tumor volume changes from baseline” value (9.3 mg/kg, DAY 56) was 493 +/− 238, the “#CR” value (15 mg/kg i.v./q4dx3) was 0 and the “#PR” value (15 mg/kg i.v./q4dx3) was 3. The “#TFS” value (15 mg/kg i.v./q4dx3) was 0, the “Drug Deaths Total” value (15 mg/kg i.v./q4dx3) was 0 and the “Weight Change at Nadir %” value (15 mg/kg i.v./q4dx3) was −14%. The “Weight Change at Nadir Day” value (15 mg/kg i.v./q4dx3) was 11 days, the “Tumor Volume Data (Day 21) Median” value (15 mg/kg i.v./q4dx3) was 78 mm^3 and the ΔT/ΔC % (15 mg/kg i.v./q4dx3) was −5.9%. For the same molecule, the MTTE (15 mg/kg i.v./q4dx3) was greater than 60 days, the T-C (15 mg/kg i.v./q4dx3) was greater than 35 days and the “tumor volume changes from baseline” value (15 mg/kg, DAY 4) was 66 +/− 66. For the same molecule, the “tumor volume changes from baseline” value (15 mg/kg, DAY 7) was 73 +/− 73, the “tumor volume changes from baseline” value (15 mg/kg, DAY 11) was −41 +/− 41 and the “tumor volume changes from baseline” value (15 mg/kg, DAY 14) was −41 +/− 41. The “tumor volume changes from baseline” value (15 mg/kg, DAY 18) was −53 +/− 17, the “tumor volume changes from baseline” value (15 mg/kg, DAY 21) was −54 +/− 12 and the “tumor volume changes from baseline” value (15 mg/kg, DAY 25) was −66 +/− 17. The “tumor volume changes from baseline” value (15 mg/kg, DAY 28) was −66 +/− 17, the “tumor volume changes from baseline” value (15 mg/kg, DAY 32) was −66 +/− 17 and the “tumor volume changes from baseline” value (15 mg/kg, DAY 35) was −66 +/− 13. The “tumor volume changes from baseline” value (15 mg/kg, DAY 39) was −66 +/− 13, the “tumor volume changes from baseline” value (15 mg/kg, DAY 42) was −66 +/− 13 and the “tumor volume changes from baseline” value (15 mg/kg, DAY 46) was −58 +/− 11. For the same molecule, the “tumor volume changes from baseline” value (15 mg/kg, DAY 49) was −58 +/− 11, the “tumor volume changes from baseline” value (15 mg/kg, DAY 53) was −58 +/− 11 and the “tumor volume changes from baseline” value (15 mg/kg, DAY 56) was −58 +/− 11. For the same molecule, the “#CR” value (24.2 mg/kg i.v./q4dx3) was 1, the “#PR” value (24.2 mg/kg i.v./q4dx3) was 6 and the “#TFS” value (24.2 mg/kg i.v./q4dx3) was 1. For the same molecule, the “Drug Deaths Total” value (24.2 mg/kg i.v./q4dx3) was 0, the “Weight Change at Nadir %” value (24.2 mg/kg i.v./q4dx3) was −17% and the “Weight Change at Nadir Day” value (24.2 mg/kg i.v./q4dx3) was 14 days. The “Tumor Volume Data (Day 21) Median” value (24.2 mg/kg i.v./q4dx3) was 71.5 mm^3, the ΔT/ΔC % (24.2 mg/kg i.v./q4dx3) was −6.1% and the MTTE (24.2 mg/kg i.v./q4dx3) was greater than 60 days. For the same molecule, the T-C (24.2 mg/kg i.v./q4dx3) was greater than 35 days, the “tumor volume changes from baseline” value (24.2 mg/kg, DAY 4) was 0 +/− 0 and the “tumor volume changes from baseline” value (24.2 mg/kg, DAY 7) was 0 +/− 0. For the same molecule, the “tumor volume changes from baseline” value (24.2 mg/kg, DAY 11) was −50 +/− 24, the “tumor volume changes from baseline” value (24.2 mg/kg, DAY 14) was −55.5 +/− 20 and the “tumor volume changes from baseline” value (24.2 mg/kg, DAY 18) was −55.5 +/− 20. The “tumor volume changes from baseline” value (24.2 mg/kg, DAY 21) was −55.5 +/− 10.5, the “tumor volume changes from baseline” value (24.2 mg/kg, DAY 25) was −55.5 +/− 10.5 and the “tumor volume changes from baseline” value (24.2 mg/kg, DAY 28) was −53.5 +/− 13. The “tumor volume changes from baseline” value (24.2 mg/kg, DAY 32) was −53.5 +/− 33, the “tumor volume changes from baseline” value (24.2 mg/kg, DAY 35) was −57.5 +/− 45.5 and the “tumor volume changes from baseline” value (24.2 mg/kg, DAY 39) was −57.5. The “tumor volume changes from baseline” value (24.2 mg/kg, DAY 42) was −57.5, the “tumor volume changes from baseline” value (24.2 mg/kg, DAY 46) was −57.5 and the “tumor volume changes from baseline” value (24.2 mg/kg, DAY 49) was −48 +/− 45.5. For the same molecule, the “tumor volume changes from baseline” value (24.2 mg/kg, DAY 53) was −48 +/− 69.5 and the “tumor volume changes from baseline” value (24.2 mg/kg, DAY 56) was −48 +/− 69.5.
